In patent publication US20060167276A1, “Clausenamide c5-hydroxyl derivatives and n-substituted derivatives, processes for their preparation, its composition and use” (priority 2002, published 2006):

Tests used:
[1] = several behavioral studies; cited from earlier work
[2] = in vivo and in vitro; cited from earlier work
[3] = system: C17-2 mouse brain neural stem cells; test: Cell proliferation of mouse brain neural stem cells (MTT, OD 490 nm); format: cell-based; conditions: for Result (OD value): MTT at 4th day, OD 490 nm; for Cell proliferation %: control group = 100%
Procedure: C17-2 mouse brain neural stem cells (C17-2 cells) were continuously cultured in 1640 medium with 10% horse serum and 10% fetal bovine serum at 5% CO2 and 37° C., dissociated to single cell suspension by 0.1% trypsin solution, centrifuged at 1,000 rpm×5 min and rinsed with medium. The cells were seeded in a 96-well plate, 1×10^3 cells per well, 3 well per group, continuously cultured. After 24 hours, the test compounds were added, doses of each of the C5-hydroxyl substituted clausenamides and N-substituted clausenamide derivatives were 0.1 μM, 1 μM and 10 μM respectively. The growth situation of the cells was observed under a microscope, once daily. At the 4th day, media in each well were pipetted, phosphate buffer solution containing MTT was added. 4 Hours later, the fluid was discarded, and a DMSO solution was added. The cells were incubated at 37° C. for 10 min under shaken. OD values on 490 nm of each well were detected. Set the growth rate of the control group as 100%, and the growth rates of each dose were given by comparison with the control group and t-tested.

[4] = system: rat hippocampus; test: LTP / synaptic transmission in rat hippocampus (population spike amplitude, dentate gyrus); format: in vivo; conditions: lateral ventricle, prior administration = 100
From the text: Male adult SD Rats (5 per group) were anesthetized with 20% (w/v) urethane carbamate (1.0 g·kg^−1, ip) and fixed in a stereotaxic head holder. According to the reference of Pellegrino stereotaxic spectrum of rat, recording electrodes (stainless steel needle of 0.2 mm diameter were insulted except for 0.2 mm tip) were placed in the dentate gyrus granule cell layer. The stimulating electrodes (two stainless steel needles of 0.15 mm diameter coated with Teflon except for the 0.2 mm tip, and the distance between two needles was 0.5 mm) were planted between the fibre of perforant path (PP) in rat. Continuous pulse was provided by electronic stimulator, and delivered to PP through stimulus isolator and stimulating electrodes. Electrode depth was then adjusted until a typical excitatory postsynaptic potential (EPSP) was observed. Electric current was magnified by amplifier and collected by computer, then processed by DataWave software. The stimulus intensity was adjusted to produce population spike (PS) with a slope that was ≈50% of the maximum. Single-pulse test stimuli were at an interval of 30 sec during the experiment. Population spike amplitude (PSA) was recorded and the relatively percent of PSA was calculated according to the formula (PSA/basic value).

SMILES: CN1C(=O)C(O)C(c2ccccc2)C1C(O)c1ccccc1 (racemic) [clausenamide]
- nootropic effect [1]: Significant nootropic effect

SMILES: O=C1C(O)C(c2ccccc2)C(C(O)c2ccccc2)N1CO (single isomer, unassigned; (-)) [(−)CM1, (−) N-hydroxymethyl norclausenamide]
- content in the metabolites of (−) clausenamide compared with the corresponding (+) isomers in the metabolites of (+) clausenamide [2]: significantly higher

SMILES: CN1C(=O)C(O)C(c2ccccc2)C1(O)C(O)c1ccccc1 (single isomer, unassigned; (-)) [(−)CM2, (−) 5-hydroxyclausenamide]
- content in the metabolites of (−) clausenamide compared with the corresponding (+) isomers in the metabolites of (+) clausenamide [2]: significantly higher

SMILES: CN1C(=O)[C@@H](O)[C@H](c2ccccc2)[C@]1(O)[C@@H](O)c1ccccc1 [(−)II3, (−)-(3S,4S,5S,6S)-5-hydroxy-clausenamide]
- Result (OD value) ([3]; dose 10^−5 M): 0.088 ± 0.006
- Cell proliferation % ([3]; dose 10^−5 M): 64.23%
- Result (OD value) ([3]; dose 10^−6 M): 0.187 ± 0.020
- Cell proliferation % ([3]; dose 10^−6 M): 136.50%
- Result (OD value) ([3]; dose 10^−7 M): 0.168 ± 0.076
- Cell proliferation % ([3]; dose 10^−7 M): 122.63%
- Relative PS (PSA %) ([4]; 15 min after administration): 92.83 ± 17.54%
- Relative PS (PSA %) ([4]; 30 min after administration): 87.11 ± 30.54%
- Relative PS (PSA %) ([4]; 45 min after administration): 97.34 ± 25.71%
- Relative PS (PSA %) ([4]; 60 min after administration): 98.30 ± 28.59%
